Bounds are passed on as bounds.

One test relates to Mut6 cells (TD-NSC). The test is described as follows: luminescence-based Celltiter-Glo cell viability assay (ATP levels) on Mut6 tumor derived neuronal stem cells. Set-up: species or system mouse. The conditions noted are these: ATP activity as measure of viability, 96 hours. An excerpt: A mouse colony with 100% incidence of GBM and with conditional knockout of p53, pTEN and NF1 genes (Mut6; glioblastoma) was used to isolate primary neuronal stem cells from GBM tumors cultured in 5% Oxygen and in serum free media with defined growth factors. Primary cells from multiple tumors were pooled for high throughput screening with controls against the University of Texas Southwestern (UTSW) compound file, which encompasses ˜200,000 synthetic compounds that represent a large chemical space from several commercial vendors, including 1200 marketed drugs from the Prestwick Chemical Library®, and 600 compounds that went to pre-clinical tests from the NIH library.
A luminescence-based Celltiter-Glo® assay was performed to measure cell viability, using ATP levels as the readout. In brief, opaque-walled multiwell plates with Mut6 cells in culture medium (25 μl per well, 384-well plates) were prepared. Control wells containing medium without cells were prepared to obtain a value for background luminescence. Test compounds were added to experimental wells, and incubated according to culture protocol. The plate and its contents were incubated at 37° C., 5% […] for 96 hours. An ATP standard curve was generated immediately prior to adding the CellTiter-Glo® Reagent. A volume of CellTiter-Glo® Reagent equal to the volume of cell culture medium present in each well (25 μl of reagent to 25 μl of medium containing cells for a 384-well plate) was added. The contents were mixed for 2 minutes on an orbital shaker to induce cell lysis. The plate was allowed to incubate at room temperature for 10 minutes to stabilize the luminescent signal and luminescence recorded. (e.g. GloMax®, Lumistar, SPECTROstar, PHERAstar FS).
Compound 4C12 served as initial lead compound for analog development and for additional studies. […] See Wager, T T et al, “Moving beyond rules: the development of a central nervous system multi-parameter-optimization (CNS MPO) approach to enable alignment of drug-like properties,” ACS Chem. Neurosci. 1(6): 435-49 (2010). IC50 curves for the analog compounds plotted as ATP activity (y axis, a measure of viability) vs. concentration (nM) (x-axis) are shown in FIG. 9.
On the technique in general: ATP-based viability assays read luminescence as a measure of living cells.
For `CC(C)(C)OC(=O)N1CCN(CCNC(=O)c2ccc(Sc3ccc(F)cc3)c([N+](=O)[O-])c2)CC1` [DS-2-127, Tert-butyl 4-(2-(4-((4-fluorophenyl)thio)-3-nitrobenzamido)ethyl)piperazine-1-carboxylate], the “EC50 (TD-NSC) (nM)” value is “Not Active”.

The same test, now with this note: Mus musculus, 96 h, ATP activity as measure of viability, 96 hours; read-out: EC50 (TD-NSC).
By EC50 is commonly meant the concentration needed to bring the measured effect to its halfway point. As to `O=C(NCC1CCCO1)c1ccc(Sc2ccc(F)cc2)c([N+](=O)[O-])c1` (stereo not shown) [DS-1-275, 4-((4-fluorophenyl)thio)-3-nitro-N-((tetrahydrofuran-2-yl)methyl)benzamide], the EC50 is above 1000 nM.

On to `CCN1CCCC1COC(=O)c1ccc(Sc2ccc(F)cc2)c([N+](=O)[O-])c1` (stereo not shown) [DS-1-287, (1-ethylpyrrolidin-2-yl)methyl 4-((4-fluorophenyl)thio)-3-nitrobenzoate], for which the EC50 is above 1000 nM.

In the case of `CCN1CCCC1CNC(=O)c1ccc(Sc2ccc(Cl)c(Cl)c2)c([N+](=O)[O-])c1` (stereo not shown) [DS-1-291, 4-((3,4-dichlorophenyl)thio)-N-((1-ethylpyrrolidin-2-yl)methyl)-3-nitrobenzamide], the EC50 came out at 93 nM.

Consider `CCN1CCCC1CNC(=O)c1ccc(Sc2cccc(Cl)c2)c([N+](=O)[O-])c1` (stereo not shown) [DS-1-295, 4-((3-chlorophenyl)thio)-N-((1-ethylpyrrolidin-2-yl)methyl)-3-nitrobenzamide], for which the EC50 turned out to be 70 nM.

In the case of `CCN1CCCC1CNC(=O)c1ccc(Sc2ccc(C)c(C)c2)c([N+](=O)[O-])c1` (stereo not shown) [DS-1-299, 4-((3,4-dimethylphenyl)thio)-N-((1-ethylpyrrolidin-2-yl)methyl)-3-nitrobenzamide], the EC50 is 169 nM.

Regarding `CCN1CCCC1CNC(=O)c1ccc(Sc2cccc(C)c2)c([N+](=O)[O-])c1` (stereo not shown) [DS-1-305, N-((1-ethylpyrrolidin-2-yl)methyl)-3-nitro-4-(m-tolylthio)benzamide], the EC50 is 86 nM.

With `C#CCN(CC)CCNC(=O)c1ccc(Sc2ccc(F)cc2)c([N+](=O)[O-])c1` [DS-2-035, N-(2-(ethyl(prop-2-yn-1-yl)amino)ethyl)-4-((4-fluorophenyl)thio)-3-nitrobenzamide], the EC50 worked out at 49 nM.

As for `CCN1CCCC1CNC(=O)c1ccc(C(O)c2ccc(F)cc2)c([N+](=O)[O-])c1` (stereo not shown) [DS-2-051, N-((1-ethylpyrrolidin-2-yl)methyl)-4-((4-fluorophenyl)(hydroxy)methyl)-3-nitrobenzamide], the EC50 came to 564 nM.

Regarding `CCN1CCCC1CNS(=O)(=O)c1ccc(Sc2ccc(F)cc2)c([N+](=O)[O-])c1` (stereo not shown) [DS-2-055, N-((1-ethylpyrrolidin-2-yl)methyl)-4-((4-fluorophenyl)thio)-3-nitrobenzenesulfonamide], the EC50 is 155 nM.

Consider `CCN1CCCC1CNC(=O)c1ccc(C(=O)c2ccc(F)cc2)c([N+](=O)[O-])c1` (stereo not shown) [DS-2-057, N-((1-ethylpyrrolidin-2-yl)methyl)-4-(4-fluorobenzoyl)-3-nitrobenzamide], for which the EC50 came to 233 nM.

As to `CCN1CCCC1CN(C)C(=O)c1ccc(Sc2ccc(F)cc2)c([N+](=O)[O-])c1` (stereo not shown) [DS-2-061, N-((1-ethylpyrrolidin-2-yl)methyl)-4-((4-fluorophenyl)thio)-N-methyl-3-nitrobenzamide], the EC50 came out at 15 nM.

On to `C#CCN(CC)CCNC(=O)c1ccc(Sc2ccc(N=[N+]=[N-])cc2)c([N+](=O)[O-])c1` [DS-2-091, 4-((4-azidophenyl)thio)-N-(2-(ethyl(prop-2-yn-1-yl)amino)ethyl)-3-nitrobenzamide], for which the EC50 was above 1000 nM.

Turning to `C#CCOc1ccc(Sc2ccc(C(=O)NCCN(CC)Cc3ccc(C(=O)c4ccccc4)cc3)cc2[N+](=O)[O-])cc1` [DS-2-093, N-(2-((4-benzoylbenzyl)(ethyl)amino)ethyl)-3-nitro-4-((4-(prop-2-yn-1-yloxy)phenyl)thio)benzamide], the EC50 was above 1000 nM.

Regarding `C#CCN(CC)CCNC(=O)c1ccc(Oc2ccc(C(=O)c3ccccc3)cc2)c([N+](=O)[O-])c1` [DS-2-097, 4-(4-benzoylphenoxy)-N-(2-(ethyl(prop-2-yn-1-yl)amino)ethyl)-3-nitrobenzamide], the EC50 is above 1000 nM.

Regarding `C#CCN(CC)CCNC(=O)c1ccc(Oc2ccccc2C(=O)c2ccccc2)c([N+](=O)[O-])c1` [DS-2-101, 4-(2-benzoylphenoxy)-N-(2-(ethyl(prop-2-yn-1-yl)amino)ethyl)-3-nitrobenzamide], the EC50 is above 1000 nM.

Take `C#CCN(CC)CCNC(=O)c1ccc(C(=O)c2ccc(F)cc2)c([N+](=O)[O-])c1` [DS-2-107, N-(2-(ethyl(prop-2-yn-1-yl)amino)ethyl)-4-(4-fluorobenzoyl)-3-nitrobenzamide]: the EC50 is above 1000 nM.

As for `C#CCOc1ccc(Sc2ccc(C(=O)NCCNCC)cc2[N+](=O)[O-])cc1` [DS-2-111, N-(2-(ethylamino)ethyl)-3-nitro-4-((4-(prop-2-yn-1-yloxy)phenyl)thio)benzamide], the EC50 was above 1000 nM.

`CCN1CCCC1CNC(=O)c1ccc([N+](=O)[O-])c(Sc2ccc(F)cc2)c1` (stereo not shown) [DS-2-115, N-((1-ethylpyrrolidin-2-yl)methyl)-3-((4-fluorophenyl)thio)-4-nitrobenzamide]: the EC50 was 60 nM.

On to `CN1CCN(CCNC(=O)c2ccc(Sc3ccc(F)cc3)c([N+](=O)[O-])c2)CC1` [DS-2-121, 4-((4-fluorophenyl)thio)-N-(2-(4-methylpiperazin-1-yl)ethyl)-3-nitrobenzamide], for which the EC50 turned out to be 287 nM.

With `O=C(NCCN1CCCCC1)c1ccc(Sc2ccc(F)cc2)c([N+](=O)[O-])c1` [DS-2-125, 4-((4-fluorophenyl)thio)-3-nitro-N-(2-(piperidin-1-yl)ethyl)benzamide], the EC50 is 50 nM.

Regarding `O=C(NCCN1CCNCC1)c1ccc(Sc2ccc(F)cc2)c([N+](=O)[O-])c1` [DS-2-129, 4-((4-fluorophenyl)thio)-3-nitro-N-(2-(piperazin-1-yl)ethyl)benzamide], the EC50 was found to be 141 nM.

In the case of `CCN1CCCC1CNC(=O)c1ccc(Sc2ccc(Cl)c(C(F)(F)F)c2)c([N+](=O)[O-])c1` (stereo not shown) [DS-2-143, 4-((4-chloro-3-(trifluoromethyl)phenyl)thio)-N-((1-ethylpyrrolidin-2-yl)methyl)-3-nitrobenzamide], the EC50 was determined as 129 nM.

`CCN1CCCC1CNC(=O)c1ccc(Sc2cccc(N)c2)c([N+](=O)[O-])c1` (stereo not shown) [JCH-109, 4-((3-aminophenyl)thio)-N-((1-ethylpyrrolidin-2-yl)methyl)-3-nitrobenzamide]: the EC50 worked out at 301 nM.

In the case of `CCN1CCCC1CNC(=O)c1ccc(Sc2ccccc2Cl)c([N+](=O)[O-])c1` (stereo not shown) [JCH-111, 4-((2-chlorophenyl)thio)-N-((1-ethylpyrrolidin-2-yl)methyl)-3-nitrobenzamide], the EC50 was 119 nM.

In the case of `CCN1CCCC1CNC(=O)c1ccc(Sc2ccccc2C)c([N+](=O)[O-])c1` (stereo not shown) [JCH-114, N-((1-ethylpyrrolidin-2-yl)methyl)-3-nitro-4-(o-tolylthio)benzamide], the EC50 turned out to be 78 nM.

Turning to `CCN1CCCC1CNC(=O)c1ccc(Sc2ccccc2OC)c([N+](=O)[O-])c1` (stereo not shown) [JCH-117, N-((1-ethylpyrrolidin-2-yl)methyl)-4-((2-methoxyphenyl)thio)-3-nitrobenzamide], the half-maximal effective concentration (EC50) is 119 nM.

Regarding `CCN1CCCC1CNC(=O)c1ccc(Sc2ccc(Cl)cc2Cl)c([N+](=O)[O-])c1` (stereo not shown) [JCH-120, 4-((2,4-dichlorophenyl)thio)-N-((1-ethylpyrrolidin-2-yl)methyl)-3-nitrobenzamide], the EC50 turned out to be 68 nM.

Take `CCN1CCCC1CNC(=O)c1ccc(Sc2cc(Cl)cc(Cl)c2)c([N+](=O)[O-])c1` (stereo not shown) [JCH-124, 4-((3,5-dichlorophenyl)thio)-N-((1-ethylpyrrolidin-2-yl)methyl)-3-nitrobenzamide]: the EC50 came to 510 nM.

On to `CCN1CCCC1CNC(=O)c1ccc(Sc2ccc3ccccc3n2)c([N+](=O)[O-])c1` (stereo not shown) [JCH-127, N-((1-ethylpyrrolidin-2-yl)methyl)-3-nitro-4-(quinolin-2-ylthio)benzamide], for which the EC50 came out at 125 nM.

`CCN1CCCC1CNC(=O)c1ccc(Sc2cccc(O)c2)c([N+](=O)[O-])c1` (stereo not shown) [JCH-140, N-((1-ethylpyrrolidin-2-yl)methyl)-4-((3-hydroxyphenyl)thio)-3-nitrobenzamide]: the EC50 amounted to 139 nM.

Regarding `CCN1CCCC1CNC(=O)c1ccc(Sc2ccccc2O)c([N+](=O)[O-])c1` (stereo not shown) [JCH-143, N-((1-ethylpyrrolidin-2-yl)methyl)-4-((2-hydroxyphenyl)thio)-3-nitrobenzamide], the EC50 came to 160 nM.

As for `CCN1CCCC1CNC(=O)c1ccc(Sc2cccc(OC)c2)c([N+](=O)[O-])c1` (stereo not shown) [JCH-146, N-((1-ethylpyrrolidin-2-yl)methyl)-4-((3-methoxyphenyl)thio)-3-nitrobenzamide], the EC50 is 185 nM.

`CCN1CCCC1CNC(=O)c1ccc(Sc2ccccc2CO)c([N+](=O)[O-])c1` (stereo not shown) [JCH-149, N-((1-ethylpyrrolidin-2-yl)methyl)-4-((2-(hydroxymethyl)phenyl)thio)-3-nitrobenzamide]: the EC50 worked out at 154 nM.

The record behind these values is US11548894B2, “Benzamide or benzamine compounds useful as anticancer agents for the treatment of human cancers” (The Board of Regents of the University of Texas System, priority 2015, dated 2023).
